Consider two compounds from ChEMBL document CHEMBL5523759, “Discovery of Novel HDAC3 Inhibitors with PD-L1 Downregulating/Degrading and Antitumor Immune Effects” (J Med Chem, 2024).

Active and inactive are the calls of the source. No cut-off for these calls is given here.

One series deals with Histone deacetylase 3 (Homo sapiens, UniProt O15379). Put plainly: Inhibition of human recombinant HDAC3 using Ac-Leu-Gly-Lys (Ac)-AMC as substrate preincubated with compound for 10 mins followed by substrate addition and measured after 45 mins by TECAN microtiter plate reader analysis.
Histone deacetylase 3, sequence (O15379 whole entry): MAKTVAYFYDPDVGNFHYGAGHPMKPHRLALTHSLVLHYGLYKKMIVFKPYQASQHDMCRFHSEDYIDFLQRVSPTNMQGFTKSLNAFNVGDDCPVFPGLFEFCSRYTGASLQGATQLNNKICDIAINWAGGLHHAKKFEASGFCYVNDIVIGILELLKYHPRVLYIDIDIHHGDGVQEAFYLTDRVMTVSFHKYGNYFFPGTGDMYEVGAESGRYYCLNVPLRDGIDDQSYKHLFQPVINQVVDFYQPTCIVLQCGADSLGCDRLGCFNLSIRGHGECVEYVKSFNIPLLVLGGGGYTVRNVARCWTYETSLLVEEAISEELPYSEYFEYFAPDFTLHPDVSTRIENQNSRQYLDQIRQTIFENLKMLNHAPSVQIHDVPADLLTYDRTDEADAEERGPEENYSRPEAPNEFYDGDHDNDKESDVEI
The test system of series [1] is B16-F10. Description: Antitumor immunity against mouse B16-F10 cells implanted in C57BL/6 mouse model assessed as increase in CD3+ CD4+ T cells at 25 mg/kg, po administered for 9 days (reference value: 1.50%). In kind it is functional. The following applies: time 9 day.
The target in series [2] is Programmed cell death 1 ligand 1 (Mus musculus) (UniProt Q9EP73). Put plainly: Induction of PD-L1 degradation in mouse B16-F10 cells assessed as upregulation of CTSB level at 1 to 4 uM measured for 4 hrs in presence of CA-074 by Western blot analysis. The series is classed as cell-based. The note with it: dose 1-4 µM.
Programmed cell death 1 ligand 1 (Mus musculus), sequence (Q9EP73 whole entry): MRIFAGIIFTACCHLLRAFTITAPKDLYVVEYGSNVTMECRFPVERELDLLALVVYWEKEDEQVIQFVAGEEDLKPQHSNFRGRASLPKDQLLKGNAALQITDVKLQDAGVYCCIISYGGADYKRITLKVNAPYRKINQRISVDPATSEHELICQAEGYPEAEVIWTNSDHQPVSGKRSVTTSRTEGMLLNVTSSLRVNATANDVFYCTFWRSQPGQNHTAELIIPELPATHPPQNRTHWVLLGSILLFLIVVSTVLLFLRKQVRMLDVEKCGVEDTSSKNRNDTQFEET
A short description of series [3]: Toxicity in C57BL/6 mouse implanted with mouse B16-F10 cells assessed as heart damage at 25 mg/kg, po administered for 9 days by H and E staining based analysis. The note with it: in vivo, 216 h, time 9 day. In kind it is organism-based.
Series [4] is described as follows: MRT (0 to t) in Sprague-Dawley rat at 20 mg/kg, po measured up to 12 hrs by LC-MS/MS analysis. The series is classed as ADME, organism-based. The following applies: in vivo.
For another series, the target named is Tubulin. Description: Inhibition of tubulin polymerization (unknown origin) measured upto 20 mins by spectrophotometer analysis. In kind it is protein-complex assay, Homo sapiens.
Series [5] deals with Programmed cell death 1 ligand 1 (Mus musculus) (UniProt Q9EP73). Put plainly: Induction of PD-L1 degradation in mouse B16-F10 cells assessed as upregulation of CTSB level at 1 to 4 uM measured for 4 hrs by Western blot analysis. In kind it is cell-based. The note with it: dose 1-4 µM. In general terms: Immunoblotting shows a protein as a band on a membrane.
Series [6] in a line: Toxicity in C57BL/6 mouse implanted with mouse B16-F10 cells assessed as liver damage at 25 mg/kg, po administered for 9 days by H and E staining based analysis. In kind it is organism-based. The following applies: in vivo, 216 h, time 9 day.
Series [7] in a line: Toxicity in C57BL/6 mouse implanted with mouse B16-F10 cells assessed as body weight loss at 25 mg/kg, po administered for 9 days. The series is classed as organism-based. The note with it: in vivo, 216 h, time 9 day.
A short description of series [8]: AUC (0 to t) in Sprague-Dawley rat at 2 mg/kg, iv measured up to 12 hrs by LC-MS/MS analysis. The note with it: in vivo. The series is classed as ADME, organism-based.
A short description of series [9]: Metabolic stability in rat liver microsome assessed as parent compound remaining measured at 15 mins. The series is classed as ADME. The note with it: liver microsomes, read-out: Stability.
Series [10] deals with T1, Histone deacetylase 3 (Mus musculus) (UniProt O88895).
T1 sequence (whole entry): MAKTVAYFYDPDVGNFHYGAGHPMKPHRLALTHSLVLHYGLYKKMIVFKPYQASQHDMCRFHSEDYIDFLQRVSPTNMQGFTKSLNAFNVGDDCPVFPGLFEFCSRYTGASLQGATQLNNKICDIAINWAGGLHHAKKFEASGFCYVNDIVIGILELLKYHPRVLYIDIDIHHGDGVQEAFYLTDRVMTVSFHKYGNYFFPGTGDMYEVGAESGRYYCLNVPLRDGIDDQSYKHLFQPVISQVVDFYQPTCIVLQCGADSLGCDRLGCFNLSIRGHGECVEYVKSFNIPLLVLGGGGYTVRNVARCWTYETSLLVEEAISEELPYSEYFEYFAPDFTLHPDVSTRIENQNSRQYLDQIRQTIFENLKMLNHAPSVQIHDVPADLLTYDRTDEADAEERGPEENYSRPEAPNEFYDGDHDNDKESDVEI
Description: Inhibition of HDAC3 in mouse B16-F10 cells assessed as decrease in PD-L1 level measured for 24 hrs by Western blot analysis. In kind it is cell-based. The note with it: dose 1-2 µM.

Series [11] is described as follows: AUC (0 to infinity) in Sprague-Dawley rat at 2 mg/kg, iv measured up to 12 hrs by LC-MS/MS analysis. In kind it is ADME, organism-based. The following applies: in vivo.
Series [12] in a line: Metabolic stability in mouse liver microsome assessed as parent compound remaining measured at 45 mins. In kind it is ADME. The following applies: liver microsomes, read-out: Stability. (In general: Microsomes from liver hold many membrane-bound enzymes, among them those of drug oxidation.)
A short description of series [13]: Half life in Sprague-Dawley rat at 2 mg/kg, iv measured up to 12 hrs by LC-MS/MS analysis. The series is classed as ADME, organism-based. The following applies: in vivo.
Series [14] in a line: Metabolic stability in rat liver microsome assessed as parent compound remaining measured immediately. The series is classed as ADME. The following applies: liver microsomes, read-out: Stability.
The nature of series [15]: Metabolic stability in rat liver microsome assessed as parent compound remaining measured at 5 mins. In kind it is ADME. The following applies: liver microsomes, read-out: Stability.
Series [16] deals with B16-F10. Description: Antitumor immunity against mouse B16-F10 cells implanted in C57BL/6 mouse model assessed as increase in CD3+ CD8+ T cells at 25 mg/kg, po administered for 9 days (reference value: 1.01%). The following applies: time 9 day. The series is classed as functional.
Series [17] addresses Programmed cell death 1 ligand 1 (Mus musculus) (UniProt Q9EP73). Put plainly: Induction of PD-L1 degradation in mouse B16-F10 cells 0.5 to 10 uM measured for 4 hrs in presence of MG132 by Western blot analysis. In kind it is cell-based. The following applies: dose 0.5-10 µM.
The test system of series [18] is B16-F10. Put plainly: Antitumor activity against mouse B16-F10 cells implanted in C57BL/6 mouse model assessed as […] in Ac-H3 expression in tumor at 25 mg/kg, po administered for 9 days by immunofluorescence analysis. The series is classed as functional, organism-based. The following applies: time 9.0 day.
The test system of series [19] is B16-F10. Description: Antitumor activity against mouse B16-F10 cells implanted in C57BL/6 mouse model assessed as induction of PD-L1 degradation at 25 mg/kg, po administered for 9 days by Western blot analysis. The series is classed as functional, organism-based. The following applies: time 9.0 day.
A short description of series [20]: Metabolic stability in mouse liver microsome assessed as parent compound remaining measured immediately. The series is classed as ADME. The following applies: liver microsomes, read-out: Stability.
Series [21] is described as follows: Toxicity in C57BL/6 mouse implanted with mouse B16-F10 cells assessed as spleen damage at 25 mg/kg, po administered for 9 days by H and E staining based analysis. The series is classed as organism-based. The note with it: in vivo, 216 h, time 9 day.
The test system of series [22] is B16-F10. Put plainly: Antitumor activity against mouse B16-F10 cells implanted in C57BL/6 mouse model assessed as tumor growth inhibition at 25 mg/kg, IG administered for 9 days. In kind it is functional. The note with it: B16-F10, po, 216 h, time 9 day, read-out: TGI.
A short description of series [23]: Oral bioavailability in Sprague-Dawley rat at 20 mg/kg measured up to 12 hrs by LC-MS/MS analysis. The note with it: in vivo. The series is classed as ADME, organism-based.
Series [24] can be described thus: Metabolic stability in mouse liver microsome assessed as intrinsic clearance. The following applies: liver microsomes, read-out: CLH. The series is classed as ADME.
A short description of series [25]: Apparent volume of distribution in Sprague-Dawley rat at 20 mg/kg, po measured up to 12 hrs by LC-MS/MS analysis. The series is classed as ADME, organism-based. The note with it: in vivo.
The nature of series [26]: Apparent volume of distribution in Sprague-Dawley rat at 2 mg/kg, iv measured up to 12 hrs by LC-MS/MS analysis. In kind it is ADME, organism-based. The following applies: in vivo, read-out: Vz.
Series [27] is described as follows: Metabolic stability in rat liver microsome assessed as parent compound remaining measured at 45 mins. In kind it is ADME. The note with it: liver microsomes, read-out: Stability.
Series [28] can be described thus: Cmax in Sprague-Dawley rat at 20 mg/kg, po measured up to 12 hrs by LC-MS/MS analysis. The following applies: in vivo. The series is classed as ADME, organism-based.

One may read the IC50 as the concentration at which inhibition is half-maximal. As to `Nc1ccccc1NC(=O)c1ccc(-c2ncc(CNc3ccccc3)s2)cc1`, on Histone deacetylase 3, the IC50 worked out at 0.066 µM.

Broadly, the MRT last is the average time that molecules of a dose stay in the body. By AUC(0-t) is commonly meant the area under the concentration-time curve up to a stated or last time point. A word on the AUC(0-inf): it is the area under the concentration-time curve extrapolated to infinity. What is called half-life is the time in which the quantity being followed falls by half. Broadly, the bioavailability is the share of a dose that reaches the circulation, judged against a reference dose that is usually intravenous. A lower bioavailability goes with poor availability. A word on the Cmax: it is the highest concentration seen after dosing. Turning to `CCCNNC(=O)c1ccc(CNC(=O)c2ncc(CNc3ccccc3)s2)cc1`, the Activity was 4.16% with B16-F10 [1]; “Non-Toxic” in series [3]; “Non-Toxic” in [6]; “Non-Toxic” in [7]; 3.7% with B16-F10 [16]; “Non-Toxic” in series [21]. For the same compound, the outcome (in series [2]; in [5]; in series [17]; with B16-F10 [18]; with B16-F10 [19]) was Active. This compound also came in with an MRT last at 12 h in series [4] of 3.19 h. Further, at Tubulin, the IC50 came out at 7.3 µM. Further, the AUC(0-t) at 12 h in series [8] was 522 ng·h/mL. For the same compound, the remaining at 0.25 h in [9] stood at 57.5%. In series [10], the inhibition entry is “Dose-Dependent Effect”. In series [11], the AUC(0-inf) was determined as 529 ng·h/mL. Further, the remaining at 0.75 h was found to be 4.03% in [12] and 25.4% in series [27]. Also, the half-life in series [13] was 0.4 h. The remaining at 0 min in [14] and in series [20] was 100% each time. Also, the remaining at 5 min in [15] came out at 79.9%. In the series with B16-F10 [22], the inhibition in vivo at 25 mg/kg came out at 37%. Also, in series [23], the bioavailability came out at 57%. In addition, the CLint scaled in series [24] turned out to be 563 mL/min/kg. Moreover, the Vz in [25] was determined as 34.45 L/kg. The Vd in series [26] was determined as 2.21 L/kg. For the same compound, the peak level in series [28] (Cmax) was 1040 ng/mL.
